Reference: PMC9533837 (Antiviral Research, 2003)
Converted amounts (≈) assume the structure as drawn. Read-outs that look alike come from different tables or passages of the source.

Columns and labels:
VAR isolate Eth17 = experiment: organism not typed; type: cell-based, variola; conditions: Vero, read-out: IC50, VAR isolate Eth17
VAR isolate V77-1605 = experiment: organism not typed; type: cell-based, variola; conditions: Vero, read-out: IC50, VAR isolate V77-1605
VAC Copenhagen [1] = experiment: microbe, parasite or virus in culture; type: cell-based, vaccinia virus
[2] = test system: VAR-YAM (1946 Japan Yamada isolate of VAR major); experiment: organism not typed; type: cell-based, variola major; conditions: for IC50: Vero
[3] = test system: MPX Zaire (V79-1-005-Scab); experiment: organism not typed; type: cell-based, monkeypox; conditions: for IC50: Vero
[4] = test system: VAR-BSH (1975 Bangladesh isolate of VAR major); experiment: organism not typed; type: cell-based, variola major
VAR isolate Hinden = experiment: organism not typed; type: cell-based, variola; conditions: Vero, read-out: IC50, VAR isolate Hinden
VAR isolate Horn = experiment: organism not typed; type: cell-based, variola; conditions: Vero, read-out: IC50, VAR isolate Horn
[5] = test system: orthopoxviruses (VAR-BSH, VAR-YAM, VAR-GAR, MPX, CPX, VAC); experiment: organism not typed; type: cell-based
VAR isolate V68-59 = experiment: organism not typed; type: cell-based, variola minor; conditions: Vero, read-out: IC50, VAR isolate V68-59
VAR isolate Minn124 = experiment: organism not typed; type: cell-based, variola minor; conditions: Vero, read-out: IC50, VAR isolate Minn124
VAR isolate 7124 = experiment: organism not typed; type: cell-based, variola; conditions: Vero, read-out: IC50, VAR isolate 7124
VAR isolate Somalia = experiment: organism not typed; type: cell-based, variola; conditions: Vero, read-out: IC50, VAR isolate Somalia
VAR isolate V72-119 = experiment: organism not typed; type: cell-based, variola; conditions: Vero, read-out: IC50, VAR isolate V72-119
[6] = test system: MPX Zaire (V79-1-005-Scab); experiment: organism not typed; type: cell-based, monkeypox
VAR isolate Rafig Lahore = experiment: organism not typed; type: cell-based, variola; conditions: Vero, read-out: IC50, VAR isolate Rafig Lahore
[7] = test system: VAR-GAR (1966 Brazil Garcia isolate of VAR minor); experiment: organism not typed; type: cell-based, variola minor; conditions: for IC50: Vero
CPX Brighton [8] = experiment: organism not typed; type: cell-based, cowpox
CPX = conditions: cited from earlier work
VAR isolate V74-227 = experiment: organism not typed; type: cell-based, variola; conditions: Vero, read-out: IC50, VAR isolate V74-227
VAR isolate Jee = experiment: organism not typed; type: cell-based, variola; conditions: Vero, read-out: IC50, VAR isolate Jee
VAR isolate Shahzaman = experiment: organism not typed; type: cell-based, variola; conditions: Vero, read-out: IC50, VAR isolate Shahzaman
[9] = test system: VAR-YAM (1946 Japan Yamada isolate of VAR major); experiment: organism not typed; type: cell-based, variola major
CPX Brighton [10] = experiment: organism not typed; type: cell-based, cowpox; conditions: for IC50: Vero
LLC-MK2 cells = conditions: rhesus monkey
[11] = test system: VAR-BSH (1975 Bangladesh isolate of VAR major); experiment: organism not typed; type: cell-based, variola major; conditions: for IC50: Vero
VAC Copenhagen [12] = experiment: microbe, parasite or virus in culture; type: cell-based, vaccinia virus; remark: listed apart in the source
VAR isolate 7125 = experiment: organism not typed; type: cell-based, variola; conditions: Vero, read-out: IC50, VAR isolate 7125
VAC = conditions: cited from earlier work
all VAR isolates tested = experiment: organism not typed; type: cell-based, variola; conditions: Vero, read-out: IC50, VAR mean
VAR isolate V73-175 = experiment: organism not typed; type: cell-based, variola; conditions: Vero, read-out: IC50, VAR isolate V73-175
[13] = test system: VAR-GAR (1966 Brazil Garcia isolate of VAR minor); experiment: organism not typed; type: cell-based, variola minor
VAR isolate Harper = experiment: organism not typed; type: cell-based, variola; conditions: Vero, read-out: IC50, VAR isolate Harper
VAR isolate V73-225 = experiment: organism not typed; type: cell-based, variola; conditions: Vero, read-out: IC50, VAR isolate V73-225
VAR isolate K1629 = experiment: organism not typed; type: cell-based, variola; conditions: Vero, read-out: IC50, VAR isolate K1629
VAR isolate Higgins = experiment: organism not typed; type: cell-based, variola; conditions: Vero, read-out: IC50, VAR isolate Higgins
VAR isolate V70-222 = experiment: organism not typed; type: cell-based, variola; conditions: Vero, read-out: IC50, VAR isolate V70-222

Nc1ccn(C[C@@H](CO)OCP(=O)(O)O)c(=O)n1 [Cidofovir, 1-[(S)-3-hydroxy-2-(phosphonomethoxy)-propyl]cytosine]
IC50 (VAR isolate Eth17): 11 µg/mL (≈ 39.4 µM)
IC50 (VAR isolate V77-1605): 19 µg/mL (≈ 68.1 µM)
Therapeutic index (TI) VAC LLC-MK2 (VAC Copenhagen [1]): 23.3
IC50 (VAC Copenhagen [1]; Orthopoxvirus vaccinia, LLC-MK2, read-out: IC50 VAC LLC-MK2): 4.3 µg/mL (≈ 15.4 µM)
Therapeutic index (TI) VAR-YAM Vero [2]: 8.3
IC50 ([2]; read-out: IC50, VAR isolate Yamada): 13 µg/mL (≈ 46.6 µM)
IC50 ([2]; read-out: IC50 VAR-YAM Vero): 12.1 µg/mL (≈ 43.3 µM)
Therapeutic index (TI) MPX Vero [3]: 14.9
IC50 ([3]; read-out: IC50, MPX): 11 µg/mL (≈ 39.4 µM)
IC50 ([3]; read-out: IC50 MPX Vero): 6.7 µg/mL (≈ 24 µM)
Therapeutic index (TI) VAR-BSH LLC-MK2 [4]: 31.3
IC50 ([4]; LLC-MK2, read-out: IC50 VAR-BSH LLC-MK2): 3.2 µg/mL (≈ 11.5 µM)
IC50 (VAR isolate Hinden): 10 µg/mL (≈ 35.8 µM)
IC50 (VAR isolate Horn): 11 µg/mL (≈ 39.4 µM)
TI against the panel of viruses [5]: 18.2
IC50 ([5]; read-out: mean IC50 against the panel of viruses): 5.5 ± 0.95 µg/mL (≈ 19.7 µM)
IC50 (VAR isolate V68-59): 13 µg/mL (≈ 46.6 µM)
IC50 (VAR isolate Minn124): 5 µg/mL (≈ 17.9 µM)
IC50 (VAR isolate 7124): 20 µg/mL (≈ 71.6 µM)
IC50 (VAR isolate Somalia): 7 µg/mL (≈ 25.1 µM)
IC50 (VAR isolate V72-119): 10 µg/mL (≈ 35.8 µM)
Therapeutic index (TI) MPX LLC-MK2 [6]: 27.0
IC50 ([6]; LLC-MK2, read-out: IC50 MPX LLC-MK2): 3.7 µg/mL (≈ 13.3 µM)
IC50 (VAR isolate Rafig Lahore): 12 µg/mL (≈ 43 µM)
Therapeutic index (TI) VAR-GAR Vero [7]: 22.2
IC50 ([7]; read-out: IC50, VAR isolate Garcia): 7 µg/mL (≈ 25.1 µM)
IC50 ([7]; read-out: IC50 VAR-GAR Vero): 4.5 µg/mL (≈ 16.1 µM)
Therapeutic index (TI) CPX LLC-MK2 (CPX Brighton [8]): 83.3
IC50 (CPX Brighton [8]; LLC-MK2, read-out: IC50 CPX LLC-MK2): 1.2 µg/mL (≈ 4.3 µM)
activity in vivo, CPX mouse model (CPX): active in vivo
IC50 (VAR isolate V74-227): 10 µg/mL (≈ 35.8 µM)
IC50 (VAR isolate Jee): 10 µg/mL (≈ 35.8 µM)
IC50 (VAR isolate Shahzaman): 11 µg/mL (≈ 39.4 µM)
Therapeutic index (TI) VAR-YAM LLC-MK2 [9]: 37.0
IC50 ([9]; LLC-MK2, read-out: IC50 VAR-YAM LLC-MK2): 2.7 µg/mL (≈ 9.67 µM)
Therapeutic index (TI) CPX Vero (CPX Brighton [10]): 13.3
IC50 (CPX Brighton [10]; read-out: IC50, CPX): 13 µg/mL (≈ 46.6 µM)
IC50 (CPX Brighton [10]; read-out: IC50 CPX Vero): 7.5 µg/mL (≈ 26.9 µM)
Cytotoxicity TC50 LLC-MK2 (LLC-MK2 cells): >100 µg/mL
Therapeutic index (TI) VAR-BSH Vero [11]: 10.5
IC50 ([11]; 120 h, read-out: apparent IC50): 10.9 µg/mL (≈ 39 µM)
IC50 ([11]; read-out: IC50, VAR isolate Bangladesh): 17 µg/mL (≈ 60.9 µM)
IC50 ([11]; read-out: IC50 VAR-BSH Vero): 9.5 µg/mL (≈ 34 µM)
Therapeutic index (TI) VAC Vero (VAC Copenhagen [12]): 12.3
IC50 (VAC Copenhagen [12]; Orthopoxvirus vaccinia, Vero, read-out: IC50 VAC Vero): 8.1 µg/mL (≈ 29 µM)
IC50 (VAR isolate 7125): 12 µg/mL (≈ 43 µM)
inhibition of VAC replication in vitro (VAC): inhibit VAC replication in vitro
IC50 (all VAR isolates tested): 12 ± 1 µg/mL (≈ 43 µM)
IC50 (VAR isolate V73-175): 12 µg/mL (≈ 43 µM)
Therapeutic index (TI) VAR-GAR LLC-MK2 [13]: 40.0
IC50 ([13]; LLC-MK2, read-out: IC50 VAR-GAR LLC-MK2): 2.5 µg/mL (≈ 8.95 µM)
IC50 (VAR isolate Harper): 28 µg/mL (≈ 100 µM)
IC50 (VAR isolate V73-225): 5 µg/mL (≈ 17.9 µM)
IC50 (VAR isolate K1629): 17 µg/mL (≈ 60.9 µM)
IC50 (VAR isolate Higgins): 14 µg/mL (≈ 50.1 µM)
IC50 (VAR isolate V70-222): 12 µg/mL (≈ 43 µM)
